Results taken from ChEMBL document CHEMBL4831488, “Design, synthesis, docking, molecular dynamics and bioevaluation studies on novel N-methylpicolinamide and thienopyrimidine derivatives with inhibiting NF-κB and TAK1 activities: Cheminformatics tools RDKit applied in drug design” (Eur J Med Chem, 2021).
Active and inactive are the calls of the source. The calls are words filed in the database; no cut-off is given here.

Columns and labels:
MAP3K7 = assay: Inhibition of human TAK1 in human A549 cells assessed as suppression of TNF-alpha induced TAK1 phosphorylation at 0.5 to 5 uM pretreated with compounds for 24 hrs followed by TNF-alpha stimulation for 10 mins by Western blot analysis; conditions: dose 0.5-5 µM, time 1450.0 min
A549 [1] = assay: Cytotoxicity against human A549 cells assessed as inhibition of cell growth measured after 72 hrs by MTT assay; type: functional, cell-based; conditions: Homo sapiens, A549, 72 h; read-out: IC50
[2] = molecular target: T1, Nuclear factor NF-kappa-B complex (Homo sapiens) (UniProt Q00653+P19838+Q04206); assay: Inhibition of human NF-kB in human A549 cells assessed as suppression of TNF-alpha induced p-65 phosphorylation at 0.5 to 5 uM pretreated with compounds for 24 hrs followed by TNF-alpha stimulation for 10 mins by Western blot analysis; type: cell-based; conditions: dose 0.5-5 µM, time 1450.0 min
A549 [3] = assay: Cell cycle arrest in human A549 cells assessed as accumulation at G2/M phase at 1.8 uM measured after 24 hrs by PI staining based Flow cytometry method (reference value: 10.2%); type: functional
HCT-116 [4] = assay: Cytotoxicity against human HCT-116 cells assessed as inhibition of cell growth measured after 72 hrs by MTT assay; type: functional, cell-based; conditions: HCT-116, 72 h
[5] = molecular target: T1, Nuclear factor NF-kappa-B complex (Homo sapiens); assay: Inhibition of human NF-kB in human HCT-116 cells assessed as suppression of TNF-alpha induced TAK1 phosphorylation at 0.5 to 5 uM pretreated with compounds for 24 hrs followed by TNF-alpha stimulation for 10 mins by Western blot analysis; type: cell-based; conditions: dose 0.5-5 µM, time 1450.0 min
A549 [6] = assay: Cell cycle arrest in human A549 cells assessed as accumulation at G0/G1 phase at 0.6 uM measured after 24 hrs by PI staining based Flow cytometry method (reference value: 55.54%); type: functional
A549 [7] = assay: Induction of apoptosis in human A549 cells assessed as late apoptotic cells at 0.6 uM measured by annexinV-FITC/propidium iodide staining based flow cytometry analysis (reference value: 0.64%); type: functional
A549 [8] = assay: Cell cycle arrest in human A549 cells assessed as accumulation at G0/G1 phase at 1.2 uM measured after 24 hrs by PI staining based Flow cytometry method (reference value: 55.54%); type: functional
HCT-116 [9] = assay: Cytotoxicity against human HCT-116 cells assessed as inhibition of cell growth at 20 uM measured after 72 hrs by MTT assay relative to control; type: functional
A549 [10] = assay: Cell cycle arrest in human A549 cells assessed as accumulation at S phase at 1.2 uM measured after 24 hrs by PI staining based Flow cytometry method (reference value: 34.24%); type: functional
A549 [11] = assay: Induction of apoptosis in human A549 cells assessed as necrotic cells at 1.2 uM measured by annexinV-FITC/propidium iodide staining based flow cytometry analysis (reference value: 0.42%); type: functional
A549 [12] = assay: Induction of apoptosis in human A549 cells assessed as viable cells at 1.2 uM measured by annexinV-FITC/propidium iodide staining based flow cytometry analysis (reference value: 97.8%); type: functional; conditions: read-out: Activity
A549 [13] = assay: Cell cycle arrest in human A549 cells assessed as accumulation at G2/M phase at 1.2 uM measured after 24 hrs by PI staining based Flow cytometry method (reference value: 10.2%); type: functional
[14] = molecular target: T1, Nuclear factor NF-kappa-B complex (Homo sapiens); assay: Inhibition of human NF-kB in human HCT-116 cells assessed as suppression of TNF-alpha induced IkBalpha phosphorylation at 0.5 to 5 uM pretreated with compounds for 24 hrs followed by TNF-alpha stimulation for 10 mins by Western blot analysis; type: cell-based; conditions: dose 0.5-5 µM, time 1450.0 min
A549 [15] = assay: Induction of apoptosis in human A549 cells assessed as late apoptotic cells at 1.2 uM measured by annexinV-FITC/propidium iodide staining based flow cytometry analysis (reference value: 0.64%); type: functional
[16] = molecular target: T1, Nuclear factor NF-kappa-B complex (Homo sapiens); assay: Inhibition of human NF-kB in human A549 cells assessed as suppression of TNF-alpha induced IkBalpha phosphorylation at 0.5 to 5 uM pretreated with compounds for 24 hrs followed by TNF-alpha stimulation for 10 mins by Western blot analysis; type: cell-based; conditions: dose 0.5-5 µM, time 1450.0 min
[17] = molecular target: T1, Nuclear factor NF-kappa-B complex (Homo sapiens); assay: Inhibition of human NF-kB in human A549 cells assessed as suppression of TNF-alpha induced p-65 expression at 0.5 to 5 uM pretreated with compounds for 24 hrs followed by TNF-alpha stimulation for 10 mins by Western blot analysis; type: cell-based; conditions: dose 0.5-5 µM, time 1450.0 min
A549 [18] = assay: Induction of apoptosis in human A549 cells assessed as viable cells at 1.8 uM measured by annexinV-FITC/propidium iodide staining based flow cytometry analysis (reference value: 97.8%); type: functional; conditions: read-out: Activity
TAK1-TAB1 fusion protein = TAK1-TAB1 fusion protein (Homo sapiens, UniProt O43318); assay: Inhibition of Tak1/Tab1 (unknown origin) assessed as inhibition of Tak1 kinase activity preincubated for 30 mins followed by addition of MBP protein and ATP and measured after 2 hrs by ADP-Glo kinase assay
HCT-116 [19] = assay: Induction of apoptosis in human HCT-116 cells assessed as early apoptotic cells at 1.8 uM measured by annexinV-FITC/propidium iodide staining based flow cytometry analysis; type: functional
A549 [20] = assay: Cytotoxicity against human A549 cells assessed as inhibition of cell growth at 20 uM measured after 72 hrs by MTT assay relative to control; type: functional
A549 [21] = assay: Cell cycle arrest in human A549 cells assessed as accumulation at S phase at 0.6 uM measured after 24 hrs by PI staining based Flow cytometry method (reference value: 34.24%); type: functional
[22] = molecular target: T1, Nuclear factor NF-kappa-B complex (Homo sapiens); assay: Inhibition of human NF-kB in human HCT-116 cells assessed as suppression of TNF-alpha induced p-65 phosphorylation at 0.5 to 5 uM pretreated with compounds for 24 hrs followed by TNF-alpha stimulation for 10 mins by Western blot analysis; type: cell-based; conditions: dose 0.5-5 µM, time 1450.0 min
A549 [23] = assay: Induction of apoptosis in human A549 cells assessed as early apoptotic cells at 0.6 uM measured by annexinV-FITC/propidium iodide staining based flow cytometry analysis (reference value: 1.17%); type: functional
MDA-MB-231 = assay: Cytotoxicity against human MDA-MB-231 cells assessed as inhibition of cell growth at 20 uM measured after 72 hrs by MTT assay relative to control; type: functional
A549 [24] = assay: Cell cycle arrest in human A549 cells assessed as accumulation at G2/M phase at 0.6 uM measured after 24 hrs by PI staining based Flow cytometry method (reference value: 10.2%); type: functional
A549 [25] = assay: Induction of apoptosis in human A549 cells assessed as early apoptotic cells at 1.8 uM measured by annexinV-FITC/propidium iodide staining based flow cytometry analysis (reference value: 1.17%); type: functional
A549 [26] = assay: Cell cycle arrest in human A549 cells assessed as accumulation at G0/G1 phase at 1.8 uM measured after 24 hrs by PI staining based Flow cytometry method (reference value: 55.54%); type: functional
A549 [27] = assay: Induction of apoptosis in human A549 cells assessed as early apoptotic cells at 1.2 uM measured by annexinV-FITC/propidium iodide staining based flow cytometry analysis (reference value: 1.17%); type: functional
[28] = molecular target: T1, Nuclear factor NF-kappa-B complex (Homo sapiens); assay: Inhibition of human NF-kB in human HCT-116 cells assessed as suppression of TNF-alpha induced TAK1 expression at 0.5 to 5 uM pretreated with compounds for 24 hrs followed by TNF-alpha stimulation for 10 mins by Western blot analysis; type: cell-based; conditions: dose 0.5-5 µM, time 1450.0 min

T1 sequence (P19838 whole entry, looked up): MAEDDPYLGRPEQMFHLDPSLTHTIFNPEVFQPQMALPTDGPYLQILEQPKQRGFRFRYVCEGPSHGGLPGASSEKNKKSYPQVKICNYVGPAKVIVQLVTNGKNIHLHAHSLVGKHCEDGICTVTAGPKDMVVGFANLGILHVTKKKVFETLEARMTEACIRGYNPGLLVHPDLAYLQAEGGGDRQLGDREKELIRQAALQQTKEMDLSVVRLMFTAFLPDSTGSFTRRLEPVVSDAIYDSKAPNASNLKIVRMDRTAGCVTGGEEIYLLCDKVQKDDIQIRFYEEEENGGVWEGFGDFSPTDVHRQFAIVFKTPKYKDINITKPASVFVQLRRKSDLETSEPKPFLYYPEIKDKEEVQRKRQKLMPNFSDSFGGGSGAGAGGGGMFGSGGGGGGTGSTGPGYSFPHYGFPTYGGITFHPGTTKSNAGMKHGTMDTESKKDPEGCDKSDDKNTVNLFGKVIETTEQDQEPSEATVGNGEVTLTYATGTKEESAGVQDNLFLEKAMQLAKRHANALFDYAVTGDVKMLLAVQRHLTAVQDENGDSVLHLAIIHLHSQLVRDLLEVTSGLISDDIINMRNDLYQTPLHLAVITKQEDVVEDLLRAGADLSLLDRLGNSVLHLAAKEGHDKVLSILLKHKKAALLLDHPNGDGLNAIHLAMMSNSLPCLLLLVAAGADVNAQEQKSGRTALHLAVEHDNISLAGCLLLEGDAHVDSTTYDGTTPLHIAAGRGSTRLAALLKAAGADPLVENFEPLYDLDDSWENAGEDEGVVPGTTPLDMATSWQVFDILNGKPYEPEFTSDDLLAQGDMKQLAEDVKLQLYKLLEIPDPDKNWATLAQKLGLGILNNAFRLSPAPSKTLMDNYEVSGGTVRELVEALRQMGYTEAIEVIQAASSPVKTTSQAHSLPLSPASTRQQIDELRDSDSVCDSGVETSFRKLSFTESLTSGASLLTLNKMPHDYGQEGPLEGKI
T1 sequence (Q00653 whole entry, looked up): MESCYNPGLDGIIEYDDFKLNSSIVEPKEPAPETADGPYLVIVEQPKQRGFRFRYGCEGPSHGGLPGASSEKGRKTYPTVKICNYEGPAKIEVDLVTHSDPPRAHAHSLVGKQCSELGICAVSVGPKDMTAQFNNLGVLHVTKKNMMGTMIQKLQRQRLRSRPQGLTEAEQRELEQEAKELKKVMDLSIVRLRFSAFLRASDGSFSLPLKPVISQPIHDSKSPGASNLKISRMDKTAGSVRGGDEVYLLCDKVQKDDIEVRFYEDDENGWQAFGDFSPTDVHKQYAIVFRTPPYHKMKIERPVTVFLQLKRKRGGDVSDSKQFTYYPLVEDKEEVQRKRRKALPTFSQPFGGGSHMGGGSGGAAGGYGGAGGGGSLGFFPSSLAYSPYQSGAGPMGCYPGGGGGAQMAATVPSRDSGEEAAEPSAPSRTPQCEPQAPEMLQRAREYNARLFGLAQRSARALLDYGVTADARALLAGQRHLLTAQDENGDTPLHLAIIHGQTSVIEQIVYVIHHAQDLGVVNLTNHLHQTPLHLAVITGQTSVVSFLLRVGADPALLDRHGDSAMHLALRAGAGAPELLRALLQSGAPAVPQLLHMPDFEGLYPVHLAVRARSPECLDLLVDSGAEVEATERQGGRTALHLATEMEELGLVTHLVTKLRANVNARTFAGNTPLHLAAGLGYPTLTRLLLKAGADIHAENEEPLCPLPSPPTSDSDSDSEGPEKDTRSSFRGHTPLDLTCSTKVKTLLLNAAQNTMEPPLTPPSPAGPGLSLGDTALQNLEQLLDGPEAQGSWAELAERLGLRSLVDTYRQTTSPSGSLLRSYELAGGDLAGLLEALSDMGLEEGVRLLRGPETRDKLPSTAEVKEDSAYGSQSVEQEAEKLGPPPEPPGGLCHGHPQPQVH
T1 sequence (Q04206 whole entry, looked up): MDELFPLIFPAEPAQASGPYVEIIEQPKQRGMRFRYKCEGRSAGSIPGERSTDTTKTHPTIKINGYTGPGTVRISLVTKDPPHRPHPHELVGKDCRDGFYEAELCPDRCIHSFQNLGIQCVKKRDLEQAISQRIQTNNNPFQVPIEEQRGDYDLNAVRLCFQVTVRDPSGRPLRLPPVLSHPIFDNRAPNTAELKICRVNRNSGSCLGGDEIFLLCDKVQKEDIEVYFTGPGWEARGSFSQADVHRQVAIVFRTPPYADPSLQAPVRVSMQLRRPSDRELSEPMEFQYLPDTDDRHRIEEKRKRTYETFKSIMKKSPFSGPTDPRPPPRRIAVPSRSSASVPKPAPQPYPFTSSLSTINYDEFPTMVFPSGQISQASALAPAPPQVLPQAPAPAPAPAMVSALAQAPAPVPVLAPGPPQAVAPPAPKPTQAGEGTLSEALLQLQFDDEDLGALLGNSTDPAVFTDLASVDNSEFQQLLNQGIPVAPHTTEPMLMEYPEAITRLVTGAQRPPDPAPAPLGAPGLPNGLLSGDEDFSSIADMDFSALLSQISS
TAK1-TAB1 fusion protein, sequence (O43318 whole entry, looked up, the tested form may be a part): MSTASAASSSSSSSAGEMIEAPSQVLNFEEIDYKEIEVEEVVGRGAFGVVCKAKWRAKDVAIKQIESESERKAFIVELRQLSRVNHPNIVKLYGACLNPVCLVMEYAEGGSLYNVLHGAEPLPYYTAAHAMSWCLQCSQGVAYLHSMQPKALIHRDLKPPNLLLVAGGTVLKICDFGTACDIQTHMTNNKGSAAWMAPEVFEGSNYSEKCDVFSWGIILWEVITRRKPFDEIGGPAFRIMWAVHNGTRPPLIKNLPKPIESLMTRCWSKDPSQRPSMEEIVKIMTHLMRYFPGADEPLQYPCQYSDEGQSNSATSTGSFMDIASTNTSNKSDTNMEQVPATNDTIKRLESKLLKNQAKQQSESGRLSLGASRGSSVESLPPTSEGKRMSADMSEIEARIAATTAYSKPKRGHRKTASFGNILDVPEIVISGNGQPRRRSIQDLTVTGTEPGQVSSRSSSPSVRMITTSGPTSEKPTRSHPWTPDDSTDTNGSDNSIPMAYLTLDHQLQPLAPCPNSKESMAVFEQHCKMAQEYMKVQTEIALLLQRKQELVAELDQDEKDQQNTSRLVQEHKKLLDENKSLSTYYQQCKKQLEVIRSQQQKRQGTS

CNC(=O)c1cc(Oc2ccc(Nc3nccc(N4CCCCC4)n3)cc2)ccn1
inhibition (MAP3K7): Active
IC50 (A549 [1]): 0.89 µM
inhibition [2]: Active
Activity (A549 [3]): 30.57%
IC50 (HCT-116 [4]): 0.54 µM
inhibition [5]: Active
Activity (A549 [6]): 60.53%
Activity (A549 [7]): 3.46%
Activity (A549 [8]): 57.49%
inhibition at 20 µM (HCT-116 [9]): 69.8%
Activity (A549 [10]): 18.83%
Activity (A549 [11]): 0.74%
viability at 1.2 µM (A549 [12]): 80.6%
Activity (A549 [13]): 23.68%
inhibition [14]: Active
Activity (A549 [15]): 5.7%
inhibition [16]: Active
inhibition [17]: Active
viability at 1.8 µM (A549 [18]): 64.4%
IC50 (TAK1-TAB1 fusion protein): 0.58 µM
Activity (HCT-116 [19]): 71.4%
inhibition at 20 µM (A549 [20]): 63.4%
Activity (A549 [21]): 23.56%
inhibition [22]: Active
Activity (A549 [23]): 8.16%
inhibition at 20 µM (MDA-MB-231): 52.3%
Activity (A549 [24]): 15.91%
Activity (A549 [25]): 25.4%
Activity (A549 [26]): 52.78%
Activity (A549 [27]): 12.9%
inhibition [28]: Active
